# In patent US5352591A, “Aldolase enzyme process for making 5-azido-5-deoxy-hexulose-1-phosphate” (The Scripps Research Institute, priority 1993, dated 1994):
# Entries after “also recorded” stand apart in the source; their conditions may differ. Where two headings read alike, the source gives them in different places.
# Assays:
# [1] = biological target: T1, β-Galactosidase (E. coli) (Escherichia coli, UniProt P00722); assay: Inhibition of β-galactosidase; assay type: biochemical; settings: at 1 mM; pH 6.5
# T1 construct: purchased Sigma
# Description: (§1) The following solutions were prepared for enzymatic assay:
# 6. β-D-Galactosidase: 0.5 milligrams of solid protein (345 Units/milligram) were dissolved in 1 mL PIPES-NaOAc buffer solution.
# (§2) The following illustrates the procedure in detail.
# [2] = biological target: T2, α-Mannosidase (jack bean) (Canavalia ensiformis, UniProt C0HJB3); assay: Inhibition of α-mannosidase; assay type: biochemical
# T2 construct: purchased Sigma
# T2 sequence (C0HJB3 1-562 limits assumed): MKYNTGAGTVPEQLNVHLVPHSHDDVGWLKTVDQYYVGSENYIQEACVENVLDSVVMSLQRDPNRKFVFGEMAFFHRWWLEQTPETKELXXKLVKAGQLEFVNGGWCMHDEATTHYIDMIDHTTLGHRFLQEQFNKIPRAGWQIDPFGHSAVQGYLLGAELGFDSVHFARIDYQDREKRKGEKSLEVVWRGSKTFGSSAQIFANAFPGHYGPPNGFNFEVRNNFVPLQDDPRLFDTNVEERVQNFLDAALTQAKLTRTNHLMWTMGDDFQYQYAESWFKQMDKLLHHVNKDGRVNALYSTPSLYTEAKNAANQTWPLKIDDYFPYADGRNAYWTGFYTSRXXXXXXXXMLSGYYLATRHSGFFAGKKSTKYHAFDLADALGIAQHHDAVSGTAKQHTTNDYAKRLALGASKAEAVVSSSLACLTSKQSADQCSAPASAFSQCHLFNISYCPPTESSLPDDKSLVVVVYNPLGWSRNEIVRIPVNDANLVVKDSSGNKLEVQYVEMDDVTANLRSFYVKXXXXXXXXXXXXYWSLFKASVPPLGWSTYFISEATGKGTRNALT
# T2 sequence (C0HJB3 563-981 limits assumed): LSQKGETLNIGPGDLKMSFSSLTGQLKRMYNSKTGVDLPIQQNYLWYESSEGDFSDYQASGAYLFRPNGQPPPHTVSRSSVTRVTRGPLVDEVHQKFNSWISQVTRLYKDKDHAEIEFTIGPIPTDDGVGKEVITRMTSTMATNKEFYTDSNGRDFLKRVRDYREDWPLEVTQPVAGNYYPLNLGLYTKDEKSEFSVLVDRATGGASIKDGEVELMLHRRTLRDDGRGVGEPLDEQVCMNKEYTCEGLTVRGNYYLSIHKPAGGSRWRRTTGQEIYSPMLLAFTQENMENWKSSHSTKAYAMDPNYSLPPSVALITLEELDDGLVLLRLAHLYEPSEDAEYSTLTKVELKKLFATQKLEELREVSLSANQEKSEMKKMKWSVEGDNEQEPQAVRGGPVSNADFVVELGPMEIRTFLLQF
# Description: as §1
# 4. α-D-Mannosidase: 5 milligrams of solid protein were suspended in I mL of 3M ammonium sulfate [(NH4)2 SO4 ] and 0.1M zinc acetate (ZnOAc).
# as §2
# β-Glucosidase (almond) [3] = assay: Inhibition of β-glucosidase; assay type: biochemical; settings: pH 6.5
# Description: The following solutions were prepared for enzymatic assay: 1. […] The assay enzyme solution was prepared by dissolving 20 milligrams of solid protein (4.8 Units/milligram solid) in 6 mL PIPES-NaOAc buffer solution. […] The following illustrates the procedure in detail.
# [4] = biological target: T3, α-Glucosidase (brewer yeast) (Saccharomyces cerevisiae, UniProt P53341); assay: Inhibition of α-glucosidase (Lineweaver-Burk, p-nitrophenol release); assay type: biochemical; settings: pH 6.5
# T3 construct: purchased Sigma
# Description: The following solutions were prepared for enzymatic assay: 1. […] The following illustrates the procedure in detail.
# [5] = biological target: T3, α-Glucosidase (brewer yeast); settings: from Fleet et al., Tetrahedron Lett., 1985, 26:3127; cited from earlier work
# glycosidases = settings: Fleet et al., Tetrahedron Lett. 1985, 26, 3127; cited from earlier work
# [6] = biological target: T1, β-Galactosidase (E. coli); settings: from Fleet et al. 1985; cited from earlier work
# [7] = biological target: T2, α-Mannosidase (jack bean); settings: from Fleet et al. 1985; cited from earlier work
# β-Xylosidase (A. niger) = β-Xylosidase (A. niger) (Aspergillus niger, UniProt O00089); settings: from Fleet et al. 1985; cited from earlier work
# β-Glucosidase (almond) [8] = settings: from Fleet et al. 1985; cited from earlier work
# α-L-Fucosidase = biological target: T4, α-L-Fucosidase (Homo sapiens, UniProt P04066); assay: α-L-Fucosidase inhibition (fuc-pNP hydrolysis); assay type: biochemical
# T4 sequence (P04066 32-466): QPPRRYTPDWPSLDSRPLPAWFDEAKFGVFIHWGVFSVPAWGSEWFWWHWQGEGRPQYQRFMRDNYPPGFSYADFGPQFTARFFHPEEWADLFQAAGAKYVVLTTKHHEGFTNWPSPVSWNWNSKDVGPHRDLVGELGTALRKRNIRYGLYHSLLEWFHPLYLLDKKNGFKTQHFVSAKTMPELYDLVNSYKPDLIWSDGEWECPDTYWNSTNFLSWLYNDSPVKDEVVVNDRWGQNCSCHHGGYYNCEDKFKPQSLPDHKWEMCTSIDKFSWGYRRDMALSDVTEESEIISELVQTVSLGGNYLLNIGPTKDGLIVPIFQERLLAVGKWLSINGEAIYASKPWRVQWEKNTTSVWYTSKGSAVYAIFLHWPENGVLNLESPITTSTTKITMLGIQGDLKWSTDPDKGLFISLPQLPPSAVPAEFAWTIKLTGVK
# Description: α-L-Fucosidase activity was measured by incubating the enzyme (0.005 Units) with fuc-pNP ([…]) in 0.4 ml of 50 mM acetate buffer, pH 5.5 for 20 minutes at 25° C. in the absence and presence of the azasugars of the present invention. The reaction was stopped by the addition of 0.8 ml of 2 mM glycine buffer, pH 10.5. The amount of formed p-nitrophenol was determined by optical density spectroscopy at a wavelength of 400 nm.
# [9] = test system: AIDS virus gp160 envelope protein precursor; settings: Walker et al., Proc. Natl. Acad. Sci. 1987; cited from earlier work
# T1 sequence (P00722 2-1024 limits assumed): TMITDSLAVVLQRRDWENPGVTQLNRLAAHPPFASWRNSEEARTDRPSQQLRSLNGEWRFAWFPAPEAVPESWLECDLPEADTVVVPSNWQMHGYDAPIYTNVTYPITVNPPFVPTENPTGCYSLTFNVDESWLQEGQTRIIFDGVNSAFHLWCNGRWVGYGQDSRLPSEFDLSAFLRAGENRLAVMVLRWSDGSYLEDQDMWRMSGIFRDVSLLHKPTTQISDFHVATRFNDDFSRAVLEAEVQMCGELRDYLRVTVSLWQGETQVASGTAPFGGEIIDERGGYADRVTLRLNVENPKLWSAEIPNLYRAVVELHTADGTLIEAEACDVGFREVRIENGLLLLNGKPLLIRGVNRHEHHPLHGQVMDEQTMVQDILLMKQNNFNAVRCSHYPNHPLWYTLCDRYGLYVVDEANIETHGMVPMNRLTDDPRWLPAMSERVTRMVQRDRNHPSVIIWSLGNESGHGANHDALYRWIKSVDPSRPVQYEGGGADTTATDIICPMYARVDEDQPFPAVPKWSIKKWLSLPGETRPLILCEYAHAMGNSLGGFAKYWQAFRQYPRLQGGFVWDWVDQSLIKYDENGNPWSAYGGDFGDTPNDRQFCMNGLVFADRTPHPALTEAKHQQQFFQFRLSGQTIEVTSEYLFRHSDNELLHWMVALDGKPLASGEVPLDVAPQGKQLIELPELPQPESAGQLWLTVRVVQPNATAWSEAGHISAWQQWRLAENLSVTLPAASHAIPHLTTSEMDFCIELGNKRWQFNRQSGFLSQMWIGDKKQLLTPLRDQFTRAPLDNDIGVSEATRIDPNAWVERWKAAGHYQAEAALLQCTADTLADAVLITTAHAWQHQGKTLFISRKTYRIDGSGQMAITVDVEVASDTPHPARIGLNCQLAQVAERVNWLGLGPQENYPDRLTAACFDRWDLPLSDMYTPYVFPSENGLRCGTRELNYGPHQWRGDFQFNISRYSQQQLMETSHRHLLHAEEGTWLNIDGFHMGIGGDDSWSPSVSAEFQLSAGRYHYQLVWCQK
# T3 sequence (P53341 whole entry): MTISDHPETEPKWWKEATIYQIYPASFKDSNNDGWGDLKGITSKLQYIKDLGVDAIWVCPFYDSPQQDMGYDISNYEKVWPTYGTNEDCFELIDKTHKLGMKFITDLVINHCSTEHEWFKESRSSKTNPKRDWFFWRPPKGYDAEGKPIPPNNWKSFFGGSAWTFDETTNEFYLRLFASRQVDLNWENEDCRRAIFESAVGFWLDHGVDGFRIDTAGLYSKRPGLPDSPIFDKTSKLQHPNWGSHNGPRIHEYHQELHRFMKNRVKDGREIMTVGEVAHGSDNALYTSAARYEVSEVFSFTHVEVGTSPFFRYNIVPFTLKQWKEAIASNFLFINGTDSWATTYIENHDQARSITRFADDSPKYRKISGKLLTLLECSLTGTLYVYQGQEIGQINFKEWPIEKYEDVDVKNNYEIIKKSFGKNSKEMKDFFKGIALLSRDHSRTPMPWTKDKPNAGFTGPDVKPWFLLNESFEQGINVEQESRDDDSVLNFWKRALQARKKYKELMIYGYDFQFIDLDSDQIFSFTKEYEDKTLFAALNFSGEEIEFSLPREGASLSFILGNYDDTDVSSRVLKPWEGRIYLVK
# Sequence of β-Xylosidase (A. niger) (O00089 27-804): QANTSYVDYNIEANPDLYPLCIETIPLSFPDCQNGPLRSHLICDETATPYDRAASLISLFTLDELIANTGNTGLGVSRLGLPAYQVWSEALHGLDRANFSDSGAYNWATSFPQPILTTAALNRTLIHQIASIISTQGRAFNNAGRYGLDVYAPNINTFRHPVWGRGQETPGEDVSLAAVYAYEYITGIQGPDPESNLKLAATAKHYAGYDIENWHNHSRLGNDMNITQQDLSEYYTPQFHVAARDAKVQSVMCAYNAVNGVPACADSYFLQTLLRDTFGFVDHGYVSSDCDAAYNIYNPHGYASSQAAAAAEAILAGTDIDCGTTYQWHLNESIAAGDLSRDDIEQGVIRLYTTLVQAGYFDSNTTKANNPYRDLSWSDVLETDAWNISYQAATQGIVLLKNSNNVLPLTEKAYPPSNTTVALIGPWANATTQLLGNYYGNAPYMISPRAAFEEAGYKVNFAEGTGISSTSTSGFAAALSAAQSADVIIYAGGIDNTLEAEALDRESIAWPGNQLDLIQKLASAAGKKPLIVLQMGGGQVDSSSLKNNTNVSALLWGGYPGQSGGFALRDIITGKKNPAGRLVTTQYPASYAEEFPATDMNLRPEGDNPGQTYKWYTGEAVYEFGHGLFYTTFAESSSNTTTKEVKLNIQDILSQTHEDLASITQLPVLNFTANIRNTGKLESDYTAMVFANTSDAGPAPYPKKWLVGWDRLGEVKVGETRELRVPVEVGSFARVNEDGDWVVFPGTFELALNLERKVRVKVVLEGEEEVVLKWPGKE
compound,measurement,setting,value
"OC[C@@H]1N[C@H](CO)[C@@H](O)[C@@H]1O [Compound 2, (2R,5S)-dihydroxymethyl-(3R,4R)-dihydroxypyrrolidine]","Ki Values, β-Galactosidase (E. coli)",[1],No inhibition
same,inhibition of an α-mannosidase (in words),[2],significant inhibition
same,Ki,[2]; pH 6.5,3100 µM
same,Ki,β-Glucosidase (almond) [3],19 µM
same,Ki,[4],2.8 µM
"OC[C@H]1N[C@H](CO)[C@@H](O)[C@@H]1O [Compound X, (2R,5R)-dihydroxymethyl-(3R,4R)-dihydroxypyrrolidine]",Ki,[5],3.3 µM
same,"inhibition against glycosidases, including α- and β-glucosidases and β-xylosidase (in words)",glycosidases,broad spectrum of inhibition
same,"Ki Values, β-Galactosidase (E. coli)",[6],No inhibition
same,"Ki Values, α-Mannosidase (jack bean)",[7],no inhibitory activity; also recorded: no inhibition
same,Ki,β-Xylosidase (A. niger),250 µM
same,Ki,β-Glucosidase (almond) [8],7.8 µM
C[C@@H]1OC(O)[C@@H](O)[C@H](O)[C@@H]1O (stereo partly drawn) [L-fucose],type of inhibition of fucosidase,α-L-Fucosidase; versus fuc-pNP,competitive inhibitor
same,Ki,"α-L-Fucosidase; versus fuc-pNP, 50 mM acetate buffer pH 5.5, 25° C., read-out: Ki, α-L-Fucosidase inhibition",300 µM
"OC1CN2CCC(O)C2C(O)C1O (stereo not shown) [castanospermine, 1,6,7,8tetrahydroxyoctahydroindolizine]",inhibition of processing of the AIDS virus gp160 envelope protein precursor (in words),[9],inhibit the processing
Oc1ccccc1 [phenol],Ki,α-L-Fucosidase,180 ± 20 µM
same,type of inhibition of fucosidase,α-L-Fucosidase; versus fuc-pNP,noncompetitive inhibitor
